Assay [1] concerns TF-1. Nature of the assay: cells. Format: functional, cell-based. The following applies: Homo sapiens.
Description: Inhibition of IL4-induced TF1 cell proliferation
Assay [2] concerns TF-1. Nature of the assay: cells. The assay is classed as functional, cell-based. The following applies: Homo sapiens. The source holds these as a separate data set.
Description: Inhibition of IL3-induced TF1 cell proliferation

The IC50 is the concentration that inhibits the measured activity by half. Higher therefore signals a need for much substance. As to `COC[C@H](C)Nc1nc(-n2cnc3ccncc32)nc2c1cc(C(=O)N1CCN(C)CC1)n2C`, the figures for the IC50 with TF-1 [1] and in the assay on TF-1 [2] were 1.16 µM and 4.79 µM, respectively.
For `C[C@H](Nc1nc(-n2cnc3ccncc32)nc2c1cc(C(=O)N1CCN(C)CC1)n2C)c1ccccc1` the same measures were 0.08 µM and 0.09 µM.
Regarding `C[C@H](Nc1nc(-n2cnc3ccncc32)nc2c1cc(C(=O)NCCN(C)C)n2C)c1ccccc1`, the IC50 with TF-1 [1] was found to be 0.46 µM; in the assay with TF-1 [2], 1.95 µM.
On to `C[C@H](Nc1nc(-n2cnc3ccncc32)nc2c1cc(C(=O)NCCCN1CCOCC1)n2C)c1ccccc1`, for which the IC50 came out at 0.91 µM in the assay on TF-1 [1] and 2.79 µM with TF-1 [2].
Turning to `C[C@H](Nc1nc(-n2cnc3ccncc32)nc2c1cc(C(=O)N1CCOCC1)n2C)c1ccccc1`, the IC50 turned out to be 0.67 µM in the assay with TF-1 [1] and 1.4 µM in the assay with TF-1 [2].
Taken in the same sequence, the figures for `CONC(=O)c1cc2c(N[C@@H](C)c3ccccc3)nc(-n3cnc4ccncc43)nc2n1C` were 0.45 µM and 0.74 µM.
For `COc1ccc(Cl)c(Nc2nc(-n3cnc4ccncc43)nc3c2cc(C(=O)N2CCN(C)CC2)n3C)c1` the same measures were 0.49 µM and 2.2 µM.

The record behind these values is ChEMBL document CHEMBL1148837, “Development of new pyrrolopyrimidine-based inhibitors of Janus kinase 3 (JAK3)” (Bioorg Med Chem Lett, 2007).
